This note sets out measurements from US20230322722A1, “MODULATORS OF MYC FAMILY PROTO-ONCOGENE PROTEIN” (Nalo Therapeutics, priority 2020, published 2023).

Structures are written as SMILES.

One experiment addresses T1, MycN protein (Homo sapiens, UniProt P04198).
T1 construct: either 2×10^6 of L-363 (human leukemia cell line) or SKNBE2 (neuroblastoma cell line) cells; endogenous in cells; host or cells: SKNBE2 / SK-N-BE(2) neuroblastoma cells
T1 sequence (P04198 1-464): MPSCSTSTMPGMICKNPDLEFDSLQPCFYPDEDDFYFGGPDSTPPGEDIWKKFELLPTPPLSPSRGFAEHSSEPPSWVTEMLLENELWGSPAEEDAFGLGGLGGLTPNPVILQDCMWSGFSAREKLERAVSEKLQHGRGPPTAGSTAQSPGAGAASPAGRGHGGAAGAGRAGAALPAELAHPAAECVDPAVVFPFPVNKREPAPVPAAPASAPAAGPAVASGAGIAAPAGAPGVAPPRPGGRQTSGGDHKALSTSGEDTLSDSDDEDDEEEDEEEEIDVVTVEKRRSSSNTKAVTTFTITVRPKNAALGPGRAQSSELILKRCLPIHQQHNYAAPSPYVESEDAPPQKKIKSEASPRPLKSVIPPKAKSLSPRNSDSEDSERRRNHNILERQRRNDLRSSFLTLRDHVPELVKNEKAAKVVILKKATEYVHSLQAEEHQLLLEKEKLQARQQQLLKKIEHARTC
Kind of experiment: Degradation of MycN protein, Western blot, SKNBE2 cells (Example 160). Format: cell-based. The method, boiled down:
(§1)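 L-363 or SKNBE2 cells (passage <40, mostly <30) at 1×10^6 cells/mL in RPMI 1640/10% FBS were exposed 6 h to compound added from a 1 mM stock. RIPA lysates (25–30 ug protein) were analysed by SDS-PAGE and immunoblot with 1:500 primary antibody, with protein level quantified by band densitometry.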

The target in a further experiment is T2, MycC protein (Homo sapiens, UniProt P01106).
T2 construct: either 2×10^6 of L-363 (human leukemia cell line) or SKNBE2 (neuroblastoma cell line) cells; endogenous in cells; host or cells: L-363 / L363 human leukemia cells
Kind of experiment: Degradation of MycC protein, Western blot, L-363 cells (Example 160). It counts as cell-based. To be noted: 6 h. The method, boiled down: as §1

T2 sequence (P01106 whole entry): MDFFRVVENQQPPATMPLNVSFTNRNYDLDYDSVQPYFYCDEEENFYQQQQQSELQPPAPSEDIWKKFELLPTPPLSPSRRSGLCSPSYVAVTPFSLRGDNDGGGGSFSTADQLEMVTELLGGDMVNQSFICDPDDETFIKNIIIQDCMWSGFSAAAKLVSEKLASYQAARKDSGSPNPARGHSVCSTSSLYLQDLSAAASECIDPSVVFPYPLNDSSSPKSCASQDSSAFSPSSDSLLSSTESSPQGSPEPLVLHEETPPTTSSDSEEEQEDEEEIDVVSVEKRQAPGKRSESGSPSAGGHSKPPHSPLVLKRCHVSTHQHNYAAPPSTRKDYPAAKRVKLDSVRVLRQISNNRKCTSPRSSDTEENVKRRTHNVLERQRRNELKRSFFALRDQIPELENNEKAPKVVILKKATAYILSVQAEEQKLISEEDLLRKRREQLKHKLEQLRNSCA

`CN(c1nccc(Nc2cc(C3CC3)[nH]n2)n1)[C@H]1CC[C@H](NC(=O)c2cccc(C#N)c2)CC1` [Compound 136, 3-cyano-N-((1R,4R)-4-((4-((5-cyclopropyl-1H-pyrazol-3-yl)amino)pyrimidin-2-yl)(methyl)amino)cyclohexyl)benzamide]: the values for the inhibition at 2 µM on MycN protein (6 h) and against MycC protein were 50 to 79% and 80 to 100%, respectively.

Consider `CN(c1nccc(Nc2cc(C3CC3)[nH]n2)n1)[C@H]1CC[C@H](NC(=O)c2ccc(C#N)cn2)CC1` [Compound 137, 5-cyano-N-((1R,4R)-4-((4-((5-cyclopropyl-1H-pyrazol-3-yl)amino)pyrimidin-2-yl)(methyl)amino)cyclohexyl)picolinamide], for which the inhibition at 2 µM was under 20% against MycN protein (SKNBE2, 6 h) and 20 to 49% against MycC protein.

As to `CN(c1cc(C2CCCC2)[nH]n1)c1ccnc(N(C)C2CCC(CC(=O)NC3Cc4ccc(C#N)cc4C3)CC2)n1` (stereo not drawn) [Compound 138, N-(5-cyano-2,3-dihydro-1H-inden-2-yl)-2-(4-((4-((5-cyclopentyl-1H-pyrazol-3-yl)(methyl)amino)pyrimidin-2-yl)(methyl)amino)cyclohexyl)acetamide], the inhibition at 2 µM at MycN protein (6 h) and at MycC protein was under 20% in each case.

Turning to `Cn1nnc2cc(C(=O)N[C@H]3CC[C@H](N(C)c4nccc(Nc5cc(C6CC6)[nH]n5)n4)CC3)ccc21` [Compound 139, N-((1R,4R)-4-((4-((5-cyclopropyl-1H-pyrazol-3-yl)amino)pyrimidin-2-yl)(methyl)amino)cyclohexyl)-1-methyl-1H-benzo[d][1,2,3]triazole-5-carboxamide], the inhibition at 2 µM lay within 80 to 100% against MycN protein (SKNBE2, 6 h) and 80 to 100% on MycC protein.

As for `Cn1cc(C(=O)N[C@H]2CC[C@H](N(C)c3nccc(Nc4cc(C5CC5)[nH]n4)n3)CC2)nn1` [Compound 140, N-((1R,4R)-4-((4-((5-cyclopropyl-1H-pyrazol-3-yl)amino)pyrimidin-2-yl)(methyl)amino)cyclohexyl)-1-methyl-1H-1,2,3-triazole-4-carboxamide], the inhibition at 2 µM at MycN protein (SKNBE2, 6 h) lay in the range of 80 to 100%; against MycC protein, 80 to 100%.

For `CN(c1nccc(Nc2cc(C3CC3)[nH]n2)n1)[C@H]1CC[C@H](NC(=O)c2cn3cccnc3n2)CC1` [Compound 141, N-((1R,4R)-4-((4-((5-cyclopropyl-1H-pyrazol-3-yl)amino)pyrimidin-2-yl)(methyl)amino)cyclohexyl)imidazo[1,2-a]pyrimidine-2-carboxamide], the inhibition at 2 µM at MycN protein (SKNBE2, 6 h) is 80 to 100%; on MycC protein, 80 to 100%.

On to `CN(c1nccc(Nc2cc(C3CC3)[nH]n2)n1)[C@H]1CC[C@H](NC(=O)c2nc3ccccn3n2)CC1` [Compound 142, N-((1R,4R)-4-((4-((5-cyclopropyl-1H-pyrazol-3-yl)amino)pyrimidin-2-yl)(methyl)amino)cyclohexyl)-[1,2,4]triazolo[1,5-a]pyridine-2-carboxamide], for which the inhibition at 2 µM on MycN protein (SKNBE2, 6 h) is 80 to 100%; at MycC protein, 80 to 100%.

Take `CN(c1cc(C2CCCC2)[nH]n1)c1ccnc(N(C)[C@H]2CC[C@H](NC(=O)C3Cc4ccccc4C3)CC2)n1` [Compound 143, N-((1R,4R)-4-((4-((5-cyclopentyl-1H-pyrazol-3-yl)(methyl)amino)pyrimidin-2-yl)(methyl)amino)cyclohexyl)-2,3-dihydro-1H-indene-2-carboxamide]: the inhibition at 2 µM is under 20% on MycN protein (SKNBE2, 6 h) and under 20% against MycC protein.

Turning to `Cn1nnc(CNC(=O)[C@H]2CC[C@H](N(C)c3nccc(Nc4cc(C5CC5)[nH]n4)n3)CC2)n1` [Compound 144, (1R,4R)-4-((4-((5-cyclopropyl-1H-pyrazol-3-yl)amino)pyrimidin-2-yl)(methyl)amino)-N-((2-methyl-2H-tetrazol-5-yl)methyl)cyclohexane-1-carboxamide], the inhibition at 2 µM is 80 to 100% against MycN protein (SKNBE2, 6 h) and 80 to 100% on MycC protein.

For `Cn1nnc(C(=O)N[C@H]2CC[C@H](N(C)c3nccc(Nc4cc(C5CCCC5)[nH]n4)n3)CC2)n1` [Compound 145, N-((1R,4R)-4-((4-((5-cyclopentyl-1H-pyrazol-3-yl)amino)pyrimidin-2-yl)(methyl)amino)cyclohexyl)-2-methyl-2H-tetrazole-5-carboxamide], the inhibition at 2 µM against MycN protein (SKNBE2, 6 h) lay within 50 to 79%; against MycC protein it was 80 to 100%.

Turning to `CN(c1cc(C2CC2)[nH]n1)c1ccnc(N(C)[C@H]2CC[C@H](NC(=O)c3nnn(C)n3)CC2)n1` [Compound 147, N-((1R,4R)-4-((4-((5-cyclopropyl-1H-pyrazol-3-yl)(methyl)amino)pyrimidin-2-yl)(methyl)amino)cyclohexyl)-2-methyl-2H-tetrazole-5-carboxamide], the inhibition at 2 µM at MycN protein (SKNBE2, 6 h) was under 20%; against MycC protein, 20 to 49%.

For the compound `CN(c1cc(C2CCCC2)[nH]n1)c1ccnc(N(C)[C@H]2CC[C@H](NC(=O)c3cccc(S(C)(=O)=O)c3)CC2)n1` [Compound 148, N-((1R,4R)-4-((4-((5-cyclopentyl-1H-pyrazol-3-yl)(methyl)amino)pyrimidin-2-yl)(methyl)amino)cyclohexyl)-3-(methylsulfonyl)benzamide], the inhibition at 2 µM is under 20% against MycN protein (SKNBE2, 6 h) and 20 to 49% against MycC protein.

Consider `CN(c1nccc(Nc2cc(C3CC3)[nH]n2)n1)[C@H]1CC[C@H](NC(=O)c2cn(C3COC3)nn2)CC1` [Compound 149, N-((1R,4R)-4-((4-((5-cyclopropyl-1H-pyrazol-3-yl)amino)pyrimidin-2-yl)(methyl)amino)cyclohexyl)-1-(oxetan-3-yl)-1H-1,2,3-triazole-4-carboxamide], for which the inhibition at 2 µM against MycN protein (SKNBE2, 6 h) was 80 to 100%; on MycC protein, 80 to 100%.

For `CN(c1nccc(Nc2cc(C3CC3)[nH]n2)n1)[C@H]1CC[C@H](NC(=O)c2cn(CC3(C)COC3)nn2)CC1` [Compound 150, N-((1R,4R)-4-((4-((5-cyclopropyl-1H-pyrazol-3-yl)amino)pyrimidin-2-yl)(methyl)amino)cyclohexyl)-1-((3-methyloxetan-3-yl)methyl)-1H-1,2,3-triazole-4-carboxamide], the inhibition at 2 µM lay in the range of 80 to 100% against MycN protein (SKNBE2, 6 h) and 80 to 100% against MycC protein.

In the case of `Cn1nnc2ccc(C(=O)N[C@H]3CC[C@H](N(C)c4nccc(Nc5cc(C6CC6)[nH]n5)n4)CC3)cc21` [Compound 151, N-((1R,4R)-4-((4-((5-cyclopropyl-1H-pyrazol-3-yl)amino)pyrimidin-2-yl)(methyl)amino)cyclohexyl)-1-methyl-1H-benzo[d][1,2,3]triazole-6-carboxamide], the inhibition at 2 µM at MycN protein (SKNBE2, 6 h) was 80 to 100%; at MycC protein, 80 to 100%.

Turning to `CN(c1nccc(Nc2cc(C3CC3)[nH]n2)n1)[C@H]1CC[C@H](NS(=O)(=O)Cc2cccc(C(F)(F)F)c2)CC1` [Compound 152, N-((1R,4R)-4-((4-((5-cyclopropyl-1H-pyrazol-3-yl)amino)pyrimidin-2-yl)(methyl)amino)cyclohexyl)-1-(3-(trifluoromethyl)phenyl)methanesulfonamide], the inhibition at 2 µM on MycN protein (SKNBE2, 6 h) lay within 80 to 100%; on MycC protein, 80 to 100%.

Take `CN(c1nccc(Nc2cc(C3CC3)[nH]n2)n1)[C@H]1CC[C@H](NS(=O)(=O)c2cccc(C#N)c2)CC1` [Compound 154, 3-cyano-N-((1R,4R)-4-((4-((5-cyclopropyl-1H-pyrazol-3-yl)amino)pyrimidin-2-yl)(methyl)amino)cyclohexyl)benzenesulfonamide]: the inhibition at 2 µM against MycN protein (SKNBE2, 6 h) was in the range of 50 to 79%; against MycC protein it was 80 to 100%.

As for `CN(c1nccc(Nc2cc(C3CC3)[nH]n2)n1)[C@H]1CC[C@H](NS(=O)(=O)c2cccc(S(C)(=O)=O)c2)CC1` [Compound 155, N-((1R,4R)-4-((4-((5-cyclopropyl-1H-pyrazol-3-yl)amino)pyrimidin-2-yl)(methyl)amino)cyclohexyl)-3-(methylsulfonyl)benzenesulfonamide], the inhibition at 2 µM at MycN protein (SKNBE2, 6 h) lay in the range of 80 to 100%; against MycC protein, 80 to 100%.

In the case of `CN(c1nccc(Nc2cc(C3CC3)[nH]n2)n1)[C@H]1CC[C@H](NS(=O)(=O)c2ccc(C#N)cn2)CC1` [Compound 156, 5-cyano-N-((1R,4R)-4-((4-((5-cyclopropyl-1H-pyrazol-3-yl)amino)pyrimidin-2-yl)(methyl)amino)cyclohexyl)pyridine-2-sulfonamide], the figures for the inhibition at 2 µM against MycN protein (6 h) and against MycC protein were 50 to 79% and 80 to 100%, respectively.

On to `CN(c1nccc(Nc2cc(C3CC3)[nH]n2)n1)[C@H]1CC[C@H](NS(=O)(=O)Cc2cccc(S(C)(=O)=O)c2)CC1` [Compound 157, N-((1R,4R)-4-((4-((5-cyclopropyl-1H-pyrazol-3-yl)amino)pyrimidin-2-yl)(methyl)amino)cyclohexyl)-1-(3-(methylsulfonyl)phenyl)methanesulfonamide], for which the inhibition at 2 µM was 50 to 79% against MycN protein (SKNBE2, 6 h) and 80 to 100% on MycC protein.

As to `CN(c1nccc(Nc2cc(C3CC3)[nH]n2)n1)[C@H]1CC[C@H](NS(=O)(=O)Cc2cccc(C#N)c2)CC1` [Compound 158, 1-(3-cyanophenyl)-N-((1R,4R)-4-((4-((5-cyclopropyl-1H-pyrazol-3-yl)amino)pyrimidin-2-yl)(methyl)amino)cyclohexyl)methanesulfonamide], the inhibition at 2 µM at MycN protein (SKNBE2, 6 h) lay within 50 to 79%; on MycC protein, 80 to 100%.
